According to patent US20240150334A1, “HSD17B13 INHIBITORS AND/OR DEGRADERS” (Pfizer Inc., priority 2022, published 2024):
Where a name gives a salt, the structure may show the parent alone.

Assays:
HSD17B13 enzyme = HSD17B13 enzyme (Homo sapiens (Human), UniProt Q7Z5P4); test: hHSD17B13 IC50 Assay (FAC beta-estradiol), purified protein enzyme activity assay with NAD(P)H-Glo luciferase readout; assay type: biochemical; settings: geometric mean, 12 μM FAC beta-estradiol, 500 μM NAD+, read-out: hHSD17B13_IC50 GMean IC50
Summary of the method: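 Purified human HSD17B13 (30 nM FAC) incubated with compound, beta-estradiol and NAD+ for 2 h at room temperature in the dark. NADH formation was detected by NAD(P)H-Glo luminescence after 1 h. RLUs normalized to uninhibited enzyme (vehicle) as zero effect.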

wild type human HSD17B13 = wild type human HSD17B13 (Homo sapiens (Human), UniProt Q7Z5P4); test: HEK_Beta-Est LCMS_IC50_Tekcel, whole-cell HEK-HSD17B13 inhibition assay, estrone production by LCMS; assay type: cell-based; settings: geometric mean, HEK cells stably expressing wild type human HSD17B13, 25 μM FAC beta-estradiol, read-out: HEK_Beta-Est LCMS_IC50—Tekcel GMean IC50
Summary of the method: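 Readout was LCMS quantitation of estrone made from beta-estradiol with NAD+ as cofactor. Whole HEK-HSD17B13 cells were given compound for 1 hour, then the reaction for 2 hours, both at 37° C. Product area ratios were normalized to vehicle controls as zero percent effect.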

Chain of wild type human HSD17B13 (Q7Z5P4 20-300): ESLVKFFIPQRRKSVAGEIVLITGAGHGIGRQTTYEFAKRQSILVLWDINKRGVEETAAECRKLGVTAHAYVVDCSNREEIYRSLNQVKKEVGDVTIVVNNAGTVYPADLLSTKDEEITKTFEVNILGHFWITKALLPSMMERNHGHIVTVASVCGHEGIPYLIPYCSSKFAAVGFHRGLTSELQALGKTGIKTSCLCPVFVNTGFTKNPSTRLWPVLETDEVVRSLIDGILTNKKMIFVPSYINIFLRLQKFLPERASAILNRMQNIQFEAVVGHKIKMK
Chain of HSD17B13 enzyme (Q7Z5P4 20-300): as above

Compound | IC50 (HSD17B13 enzyme) | IC50 (wild type human HSD17B13)
O=C(NC[C@H]1CC[C@H](c2noc(-c3ccc(C(F)(F)F)cn3)n2)CC1)c1cc(F)c(O)c(F)c1 [Example 13, 3,5-Difluoro-4-hydroxy-N-{[(1r,4r)-4-{5-[5-(trifluoromethyl)pyridin-2-yl]-1,2,4-oxadiazol-3-yl}cyclohexyl]methyl}benzamide] | 0.017 µM | 0.47 µM
Cn1cc(-c2ccc3cn([C@H]4CC[C@H](CNC(=O)c5cc(F)c(O)c(F)c5)CC4)nc3c2)c(C2CC2)n1 [Example 35, N-({(1r,4r)-4-[6-(3-cyclopropyl-1-methyl-1H-pyrazol-4-yl)-2H-indazol-2-yl]cyclohexyl}methyl)-3,5-difluoro-4-hydroxybenzamide] | 0.01 µM | 0.35 µM
COc1ncc(-c2ccc3cn([C@H]4CC[C@H](CNC(=O)c5cc(F)c(O)c(F)c5)CC4)nc3c2)cn1 [Example 73, 3,5-difluoro-4-hydroxy-N-({(1r,4r)-4-[6-(2-methoxypyrimidin-5-yl)-2H-indazol-2-yl]cyclohexyl}methyl) benzamide] | 0.013 µM | 0.17 µM
COc1ccc(-c2ccc3cn([C@H]4CC[C@H](CNC(=O)c5cc(F)c(O)c(F)c5)CC4)nc3c2)cc1 [Example 67, 3,5-difluoro-4-hydroxy-N-({(1r,4r)-4-[6-(4-methoxyphenyl)-2H-indazol-2-yl]cyclohexyl}methyl) benzamide] | 0.031 µM | 0.27 µM
Cc1ccnc(-c2ccc3cn([C@H]4CC[C@H](CNC(=O)c5cc(F)c(O)c(F)c5)CC4)nc3c2)n1 [Example 53, 3,5-difluoro-4-hydroxy-N-({(1r,4r)-4-[6-(4-methylpyrimidin-2-yl)-2H-indazol-2-yl]cyclohexyl}methyl)benzamide] | 0.0044 µM | 0.2 µM
O=C(NC[C@H]1CC[C@H](n2cc3ccc(-c4cccnc4)cc3n2)CC1)c1cc(F)c(O)c(F)c1 [Example 72, 3,5-difluoro-4-hydroxy-N-({(1r,4r)-4-[6-(pyridin-3-yl)-2H-indazol-2-yl]cyclohexyl}methyl) benzamide] | 0.0078 µM | 0.17 µM
Cn1nccc1-c1ccc2cn([C@H]3CC[C@H](CNC(=O)c4cc(F)c(O)c(F)c4)CC3)nc2c1 [Example 62, 3,5-difluoro-4-hydroxy-N-({(1r,4r)-4-[6-(1-methyl-1H-pyrazol-5-yl)-2H-indazol-2-yl]cyclohexyl}methyl) benzamide] | 0.0087 µM | 0.35 µM
O=C(NC[C@H]1CC[C@H](n2cc3cc(OCC4CC4)ncc3n2)CC1)c1cc(F)c(O)c(F)c1 [Example 32, N-({(1r,4r)-4-[5-(cyclopropyl-methoxy)-2H-pyrazolo[3,4-c]pyridin-2-yl]cyclohexyl}methyl)-3,5-difluoro-4-hydroxybenzamide, ammonium salt] | 0.025 µM | 0.4 µM
COc1nn(C)cc1-c1ccc2cn([C@H]3CC[C@H](CNC(=O)c4cc(F)c(O)c(F)c4)CC3)nc2c1 [Example 42, 3,5-difluoro-4-hydroxy-N-({(1r,4r)-4-[6-(3-methoxy-1-methyl-1H-pyrazol-4-yl)-2H-indazol-2-yl]cyclohexyl}methyl) benzamide] | 0.011 µM | 0.26 µM

Other lines, results leading:

IC50 (HSD17B13 enzyme) | IC50 (wild type human HSD17B13) | Compound
0.015 µM | 0.48 µM | O=C(NC[C@H]1CC[C@H](N2Cc3cc(Cl)ccc3C2=O)CC1)c1cc(F)c(O)cc1F [Example 186, N-{[(1r,4r)-4-(5-chloro-1-oxo-1,3-dihydro-2H-isoindol-2-yl)cyclohexyl]methyl}-2,5-difluoro-4-hydroxybenzamide]
0.0088 µM | 0.19 µM | O=C(NC[C@]12CC[C@](c3nc4ccccc4o3)(CC1)CC2)c1cc(F)c(O)c(F)c1 [Example 141, N-{[4-(1,3-benzoxazol-2-yl)bicyclo[2.2.2]octan-1-yl]methyl}-3,5-difluoro-4-hydroxybenzamide]
0.022 µM | 0.41 µM | O=C(NC[C@H]1CC[C@H](c2nc(-c3cnc(C(F)(F)F)cn3)no2)CC1)c1cc(F)c(O)c(F)c1 [Example 139, 3,5-difluoro-4-hydroxy-N-{[(1r,4r)-4-{3-[5-(trifluoromethyl)pyrazin-2-yl]-1,2,4-oxadiazol-5-yl}cyclohexyl]methyl} benzamide]
0.013 µM | 0.16 µM | Cc1ncc(-c2ccc3cn([C@H]4CC[C@H](CNC(=O)c5cc(F)c(O)c(F)c5)CC4)nc3c2)cn1 [Example 77, 3,5-difluoro-4-hydroxy-N-({(1r,4r)-4-[6-(2-methylpyrimidin-5-yl)-2H-indazol-2-yl]cyclohexyl}methyl) benzamide]
0.011 µM | 0.47 µM | O=C(NC[C@]12CC[C@](c3nc(-c4ccc(C(F)(F)F)nn4)no3)(CC1)CC2)c1ccc(O)c(F)c1F [Example 180, 2,3-difluoro-4-hydroxy-N-[(4-{3-[6-(trifluoromethyl)pyridazin-3-yl]-1,2,4-oxadiazol-5-yl}bicyclo[2.2.2]octan-1-yl)methyl]benzamide]
0.012 µM | 0.17 µM | Cc1cnc(-c2ccc3cn([C@H]4CC[C@H](CNC(=O)c5cc(F)c(O)c(F)c5)CC4)nc3c2)nc1 [Example 74, 3,5-difluoro-4-hydroxy-N-({(1r,4r)-4-[6-(5-methylpyrimidin-2-yl)-2H-indazol-2-yl]cyclohexyl}methyl)benzamide]
0.0097 µM | 0.12 µM | O=C(NC[C@]12CC[C@](c3nc(-c4cnc(C(F)(F)F)cn4)no3)(CC1)CC2)c1cc(F)c(O)c(F)c1 [Example 191, 3,5-difluoro-4-hydroxy-N-[(4-{3-[5-(trifluoromethyl)pyrazin-2-yl]-1,2,4-oxadiazol-5-yl}bicyclo[2.2.2]octan-1-yl)methyl]benzamide]
0.017 µM | 0.25 µM | O=C(NC[C@]12CC[C@](n3cc4cc(C(F)(F)F)ccc4n3)(CC1)CC2)c1cc(F)c(O)c(F)c1 [Example 125, 3,5-difluoro-4-hydroxy-N-({4-[5-(trifluoromethyl)-2H-indazol-2-yl]bicyclo[2.2.2]octan-1-yl}methyl)benzamide]
0.015 µM | 2.7 µM | Cc1ccc(-c2noc([C@H]3CC[C@H](CNC(=O)c4cc(F)c(O)c(F)c4)CC3)n2)nn1 [Example 211, 3,5-difluoro-4-hydroxy-N-({(1r,4r)-4-[3-(6-methyl-pyridazin-3-yl)-1,2,4-oxadiazol-5-yl]cyclohexyl}methyl) benzamide]
0.0055 µM | 0.22 µM | O=C(NC[C@]12CC[C@](c3nc(-c4ccc(C(F)(F)F)nn4)no3)(CC1)CC2)c1cc(F)c(O)c(F)c1F [Example 184, 2,3,5-trifluoro-4-hydroxy-N-[(4-{3-[6-(trifluoromethyl)pyridazin-3-yl]-1,2,4-oxadiazol-5-yl}bicyclo[2.2.2]octan-1-yl)methyl]benzamide]
0.0082 µM | 0.17 µM | COc1cnc(-c2noc([C@]34CC[C@](CNC(=O)c5cc(F)c(O)c(F)c5F)(CC3)CC4)n2)cn1 [Example 151, 2,3,5-trifluoro-4-hydroxy-N-({4-[3-(5-methoxypyrazin-2-yl)-1,2,4-oxadiazol-5-yl]bicyclo[2.2.2]octan-1-yl}methyl) benzamide]
0.0056 µM | 0.29 µM | Cn1nc(-c2noc([C@]34CC[C@](CNC(=O)c5cc(F)c(O)c(F)c5)(CC3)CC4)n2)ccc1=O [Example 146, 3,5-difluoro-4-hydroxy-N-({4-[3-(1-methyl-6-oxo-1,6-dihydro-pyridazin-3-yl)-1,2,4-oxadiazol-5-yl]bicyclo[2.2.2]octan-1-yl}methyl) benzamide]
